Patent US20220275274A1, “NEUTRAL FLUORESCENT MITOCHONDRIAL MARKER BASED ON NITROGEN-CONTAINING HETEROCYCLE, PREPARATION METHOD AND USE THEREOF” (SOOCHOW UNIVERSITY, priority 2020, published 2022)

Legend:
L929 cells = assay: cell imaging, colocalization with green mitochondrial marker Mito Tracker Green FM; assay type: cell-based; settings: dye 1 μM; for mitochondria labeling ability (red mitochondrial marker): L929 (normal) and HeLa (cancer) cells, vs Mito Tracker Green FM; for colocalization coefficient: L929 cells, vs Mito Tracker Green FM (100 nm), red and green channel
Method: (§1) Dye 3a was formulated into a mother liquor in DMSO (dimethyl sulfoxide), and then added to a conventional cell culture medium to give a concentration of dye 3a in the cell culture medium of 1 μM. L929 cells and HeLa cells were respectively co-cultured for 10 min in an incubator at saturated humidity, 37° C., and 5% CO2 (the experiment was same below). The existing green mitochondrial marker Mito Tracker® Green FM (100 nm) was added, and the cells were co-incubated for another 10 min, washed three times with a PBS buffer, and imaged under a laser confocal microscope. In the red channel, light of 561 nm was used for excitation, and a fluorescence signal in the range of 570-750 nm was collected. In the green channel, light of 488 nm was used for excitation, and a fluorescence signal in the range of 500-550 nm was collected. […] The results are shown in FIG. 20, where (a) and (g) are the bright-field images; (b) and (h) are the cell images with dye 3a; (c) and (i) are the cell images with the green mitochondrial marker; (d) and (j) are overlapped images with red channel and green channel, (e) and (k) show the fluorescence intensity of the ROI line in the overlapped images; and (f) and (1) show colocalization assays, with a colocalization coefficient of 0.91 (L929) and 0.90 (HeLa) respectively.
(§2) The experiment method with dye 3b (1 μM) and dye 3c (1 μM) is the same as that with dye 3a above, except that dye 3a is replaced. […] In FIG. 21, (a) and (g) are the bright-field images; (b) and (h) are the cell images with dye 3b; (c) and (i) are the cell images with the green mitochondrial marker; (d) and (j) are overlapped images with red channel and green channel, (e) and (k) show the fluorescence intensity of the ROI line in the overlapped images; and (f) and (1) show colocalization assays, with a colocalization coefficient of 0.88 (L929) and 0.90 (HeLa) respectively. In FIG. 22, (a) and (g) are the bright-field images; (b) and (h) are the cell images with dye 3c; (c) and (i) are the cell images with the green mitochondrial marker; (d) and (j) are overlapped images with red channel and green channel, (e) and (k) show the fluorescence intensity of the ROI line in the overlapped images; and (f) and (1) show colocalization assays, with a colocalization coefficient of 0.89 (L929) and 0.87 (HeLa) respectively.
(§3) Dye 3d was formulated into a mother liquor in DMSO (dimethyl sulfoxide), and then added to a conventional cell culture medium to give a concentration of dye 3d in the cell culture medium of 1 μM. L929 cells and HeLa cells were respectively co-cultured for 10 min in an incubator at saturated humidity, 37° C., and 5% CO2. Then the green mitochondrial marker Mito Tracker® Green FM (100 nm) and a green lipid droplet marker were added (the synthesis is as described in CHen, Y.; Wei, X. R.; Sun, R.; Xu, Y. J.; Ge, J. F. Org Biomol CHem 2018, 16, 7619.). The cells were co-incubated for another 10 min, washed three times with a PBS buffer, and imaged under a laser confocal microscope. In the red channel, light of 561 nm was used for excitation, and a fluorescence signal in the range of 570-750 nm was collected. In the green channel, light of 488 nm was used for excitation, and a fluorescence signal in the range of 500-550 nm was collected. […] The results are shown in FIG. 23, where (a) and (f) are the bright-field images, (b) and (g) are the cell images with dye 3d, (c) is the cell image with the green lipid droplet marker, (h) is the cell image with the green mitochondrial marker, (d) and (i) are overlapped images with red channel and green channel, and (e) and (j) show the fluorescence intensity of the ROI line in the overlapped images. […]

HeLa cells = assay: as above; assay type: cell-based; settings: dye 1 μM, vs Mito Tracker Green FM (100 nm), red and green channel
Method: as §1, §2, §3

[1] = ultraviolet absorption and fluorescence emission in chloroform; assay type: physicochemical; settings: 10 μM; for maximum emission wavelength (fluorescence spectrum): excitation wavelength and slit width per dye
Method: The ultraviolet absorption and fluorescence emission of the dyes prepared in the examples and comparative examples (at a concentration of 10 μM) in chloroform were tested. The horizontal ordinate is the wavelength, and the vertical ordinate is the absorbance and fluorescence intensity, respectively.
In the ultraviolet-visible absorption spectrum, dye 1a has the maximum absorption at 378 nm; and in the fluorescence spectrum, dye 1a has the highest fluorescence intensity at 452 nm, where the excitation wavelength is 370 nm, and the slit width is 3 nm/1.5 nm. In the ultraviolet-visible absorption spectrum, dye 1b has a maximum absorption wavelength of 382 nm; and in the fluorescence spectrum, dye 1b has a maximum emission wavelength of 485 nm, where the excitation wavelength is 374 nm, and the slit width is 3 nm/1.5 nm. In the ultraviolet-visible absorption spectrum, dye 1c has a maximum absorption wavelength of 385 nm; and in the fluorescence spectrum, dye 1c has a maximum emission wavelength of 454 nm, where the excitation wavelength is 380 nm, and the slit width is 3 nm/1.5 nm. In the ultraviolet-visible absorption spectrum, dye 2a has the maximum absorption at 364 nm; and in the fluorescence spectrum, dye 2a has the highest fluorescence intensity at 480 nm, where the excitation wavelength is 374 nm, and the slit width is 3 nm/1.5 nm. In the ultraviolet-visible absorption spectrum, dye 2b has a maximum absorption wavelength of 360 nm; and in the fluorescence spectrum, dye 2b has a maximum emission wavelength of 458 nm, where the excitation wavelength is 370 nm, and the slit width is 3 nm/1.5 nm. In the ultraviolet-visible absorption spectrum, dye 2c has a maximum absorption wavelength of 356 nm; and in the fluorescence spectrum, dye 2c has a maximum emission wavelength of 441 nm, where the excitation wavelength is 360 nm, and the slit width is 3 nm/3 nm. In the ultraviolet-visible absorption spectrum, dye 3a has the maximum absorption at 548 nm; and in the fluorescence spectrum, dye 3a has the highest fluorescence intensity at 606 nm, where the excitation wavelength is 560 nm, and the slit width is 1.5 nm/1.5 nm. In the ultraviolet-visible absorption spectrum, dye 3b has a maximum absorption wavelength of 549 nm; and in the fluorescence spectrum, dye 3b has a maximum emission wavelength of 608 nm, where the excitation wavelength is 540 nm, and the slit width is 1.5 nm/1.5 nm. In the ultraviolet-visible absorption spectrum, dye 3c has a maximum absorption wavelength of 554 nm; and in the fluorescence spectrum, dye 3c has a maximum emission wavelength of 611 nm, where the excitation wavelength is 540 nm, and the slit width is 1.5 nm/1.5 nm. In the ultraviolet-visible absorption spectrum, dye 3d has a maximum absorption wavelength of 556 nm; and in the fluorescence spectrum, dye 3d has a maximum emission wavelength of 619 nm, where the excitation wavelength is 570 nm, and the slit width is 1.5 nm/1.5 nm. In the ultraviolet-visible absorption spectrum, dye 4 has a maximum absorption wavelength of 501 nm; and in the fluorescence spectrum, dye 4 has a maximum emission wavelength of 515 nm, where the excitation wavelength is 495 nm, and the slit width is 1.5 nm/1.5 nm. The above UV absorption and fluorescence emission test methods are conventional methods.

SMILES | mitochondria labeling ability (red mitochondrial marker) (L929 cells) | colocalization coefficient (L929 cells) | colocalization coefficient (HeLa cells) | maximum absorption wavelength (ultraviolet-visible absorption spectrum) [1] | maximum emission wavelength (fluorescence spectrum) [1] | organelles marked (L929 cells; L929 and HeLa cells, vs Mito Tracker Green FM and a green lipid droplet marker)
CCN(CC)c1ccc2nc3c4ccc(-c5ccc6[nH]ncc6c5)cc4c(=O)cc-3oc2c1 [dye 3a] | mitochondria labeling ability in both normal cells and cancer cells | 0.91 | 0.90 | 548 nm | 606 nm | 
CCN(CC)c1ccc2nc3c4ccc(-c5cnc6[nH]ncc6c5)cc4c(=O)cc-3oc2c1 [dye 3c] | mitochondria labeling ability in both normal cells and cancer cells | 0.89 | 0.87 | 554 nm | 611 nm | 
CCN(CC)c1ccc2nc3c4ccc(-c5ccc6nccnc6c5)cc4c(=O)cc-3oc2c1 [dye 3d] |  |  |  | 556 nm | 619 nm | simultaneously mark two organelles, i.e. mitochondria and lipid droplets
CCN(CC)c1ccc2nc3c4ccc(-c5cnc6[nH]ccc6c5)cc4c(=O)cc-3oc2c1 [dye 3b] | mitochondria labeling ability in both normal cells and cancer cells | 0.88 | 0.90 | 549 nm | 608 nm | 
